From US8859760B2, “Compositions for killing or preventing the growth of microbes” (priority 2008, dated 2014)

System: skin of the mice
Assay: Skin irritation test in mice (Draize scoring, Primary Irritation Index)
Format: in vivo, Balb/c mice
Settings: for primary irritation index: 24 hr exposure, scored at 24 and 72 hours; for primary irritation index / evaluation of primary irritation index: mice; for mice with very slight erythema: n=6
Description: Lauryl methyl pyrifrin and TMP, two synthesized meso-substituted cationic porphyrins, were tested in vivo to determine the dermal irritation potential to the skin of the mice. The two test agents were prepared with three different concentrations individually, 3 μM, 30 μM, and 300 μM. 10% formic acid and PBS were used as positive and negative control respectively (n=6). […] The back of the animals were clipped free of fur with an electric clipper at least 4 hours before application of the sample. Prior to the application of test agents, each mouse received four parallel epidermal abrasions with a sterile needle at one side of the test area while the skin at the opposite side remained intact. Under anesthesia condition, a 0.5 ml sample of the test article was then applied to each mouse by introduction under a double gauze layer to an area of skin approximately 1″×1″ (2.54×2.54 cm) square. The patches were backed with plastic, covered with a non reactive tape and the entire test site wrapped with a binder. Animals will be returned to their cages. […] The Primary Irritation Index (P.I.I.) (sum of the scored reactions divided by 24 (two scoring intervals multiplied by two test parameters multiplied by six mice)) of the test article was calculated following test completion. A material producing a P.I.I. score of greater than or equal to 5.00 would be considered positive; the material would be considered a primary irritant to the skin (Table 2).

CCCCCCCCCCCC[n+]1ccc(-c2c3nc(c(-c4cc[n+](C)cc4)c4ccc([nH]4)c(-c4cc[n+](C)cc4)c4nc(c(-c5cc[n+](C)cc5)c5ccc2[nH]5)C=C4)C=C3)cc1.Cc1ccc(S(=O)(=O)[O-])cc1.Cc1ccc(S(=O)(=O)[O-])cc1.Cc1ccc(S(=O)(=O)[O-])cc1.Cc1ccc(S(=O)(=O)[O-])cc1 [lauryl methyl pyrifrin]
primary irritation index (3 μM): 0.00
evaluation of primary irritation index (3 μM): no irritation
primary irritation index (30 μM): 0.175
erythema observed (30 μM, after 24 hours, abraded area implied): very slight erythema
mice with very slight erythema (30 μM, after 24 hours): 2/6
erythema observed (30 μM, after 72 hours): very slight erythema
evaluation of primary irritation index (30 μM): irritation barely perceptible
primary irritation index (300 μM): 1.4
edema observed (300 μM, after 24 hours): Slight edema
erythema observed (300 μM, after 24 hours, abraded area implied): very slight erythema
mice with very slight erythema (300 μM, after 24 hours): 6/6
evaluation of primary irritation index (300 μM): slight irritation
erythema and edema at the intact area (intact area, all concentrations except 300 μM TMP): no erythema and edema
